Test results: ChEMBL document CHEMBL1142285, “Indeno[1,2-c]isoquinolines as enhancing agents on all-trans retinoic acid-mediated differentiation of human myeloid leukemia cells” (2008)

Key:
Format in all cases: functional, cell-based
HL-60 [1] = assay: Induction of differentiation in human HL60 cells after 72 hrs by NBT assay
NB-4 [2] = assay: Induction of differentiation in human NB4 cells after 72 hrs by NBT assay
HL-60 [3] = assay: Antiproliferative activity against human HL60 cells after 72 hrs by MTT assay
NB-4 [4] = assay: Antiproliferative activity against human NB4 cells after 72 hrs by MTT assay

Measured: Activity

COc1ccc(Cn2c3c(c4cc(C)ccc4c2=O)C(C)c2ccccc2-3)cc1 (centres undefined)
active: HL-60 [1] Dose-dependent effect | NB-4 [2] Dose-dependent effect | HL-60 [3] Dose-dependent effect | NB-4 [4] Dose-dependent effect
